Like-named read-outs stand apart in the source and are kept apart here.
Legend:
Human Full Length PARG = Human Full Length PARG (Homo sapiens (Human), UniProt Q86W56); assay: PARG enzyme assay (TR-FRET); format: biochemical; conditions: read-out: PARG Biochem IC50
PARG in HeLa cell line = assay: PARG cell assay (PAR chain immunofluorescence after MMS); format: cell-based; conditions: HeLa cells, MMS treatment, read-out: PARG Cell IC50
Procedure, shortened: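 HeLa cells were dosed with compound for 1 h, then given MMS at 50 μg/mL final for a further hour. Cells were methanol-fixed, permeabilised and stained overnight at 4° C with anti-PAR monoclonal antibody. Retained nuclear PAR chains, detected by indirect immunofluorescence, indicate PARG inhibition.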

Human Full Length PARG, sequence (Q86W56 whole entry): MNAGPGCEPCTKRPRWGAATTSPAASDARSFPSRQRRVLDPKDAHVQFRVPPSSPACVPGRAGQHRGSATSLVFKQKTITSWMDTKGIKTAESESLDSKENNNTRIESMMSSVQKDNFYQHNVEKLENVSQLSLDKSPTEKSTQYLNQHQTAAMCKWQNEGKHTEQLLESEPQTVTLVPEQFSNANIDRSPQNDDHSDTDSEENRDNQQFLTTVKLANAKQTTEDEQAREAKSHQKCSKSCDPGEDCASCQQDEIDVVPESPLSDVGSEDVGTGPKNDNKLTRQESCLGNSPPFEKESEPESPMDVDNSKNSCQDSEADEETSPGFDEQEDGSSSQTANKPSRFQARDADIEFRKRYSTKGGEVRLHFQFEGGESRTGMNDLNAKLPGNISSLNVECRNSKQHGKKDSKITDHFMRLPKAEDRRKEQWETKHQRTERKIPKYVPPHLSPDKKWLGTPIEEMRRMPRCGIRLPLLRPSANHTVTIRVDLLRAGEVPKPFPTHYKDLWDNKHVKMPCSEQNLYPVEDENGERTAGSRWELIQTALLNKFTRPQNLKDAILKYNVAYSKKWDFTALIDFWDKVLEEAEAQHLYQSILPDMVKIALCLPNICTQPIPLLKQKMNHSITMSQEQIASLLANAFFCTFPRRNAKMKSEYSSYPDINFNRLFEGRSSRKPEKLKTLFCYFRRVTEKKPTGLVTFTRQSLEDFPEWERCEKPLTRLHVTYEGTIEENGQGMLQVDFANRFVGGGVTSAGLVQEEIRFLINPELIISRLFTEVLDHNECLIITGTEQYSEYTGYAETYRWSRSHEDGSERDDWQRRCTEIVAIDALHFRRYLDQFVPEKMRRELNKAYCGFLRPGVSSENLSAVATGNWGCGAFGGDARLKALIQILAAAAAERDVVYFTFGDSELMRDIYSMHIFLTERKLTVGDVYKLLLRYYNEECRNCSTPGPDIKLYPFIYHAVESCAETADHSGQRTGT

## Cc1ccc(Cn2c(=O)n(Cc3cnn(C)c3)c(=O)c3cc(S(=O)(=O)NC4(CF)CC4)ccc32)nc1 [Example 537, N-[1-(Fluoromethyl)cyclopropyl]-3-[(1-methylpyrazol-4-yl)methyl]-1-[(5-methyl-2-pyridyl)methyl]-2,4-dioxo-quinazoline-6-sulfonamide]
Human Full Length PARG
  IC50: 0.189 µM
PARG in HeLa cell line; Homo sapiens
  IC50: 0.181 µM

## Cn1cc(Cn2c(=O)c3cc(S(=O)(=O)NC4(CF)CC4)ccc3n(Cc3cccc(C#N)n3)c2=O)cn1 [Example 538, 1-[(6-Cyano-2-pyridyl)methyl]-N-[1-(fluoromethyl)cyclopropyl]-3-[(1-methylpyrazol-4-yl)methyl]-2,4-dioxo-quinazoline-6-sulfonamide]
Human Full Length PARG
  IC50: 0.162 µM
PARG in HeLa cell line
  IC50: 0.393 µM

## Cc1cncc(Cn2c(=O)n(Cc3cnn(C)c3)c(=O)c3cc(S(=O)(=O)NC4(CF)CC4)ccc32)c1 [Example 539, N-[1-(Fluoromethyl)cyclopropyl]-3-[(1-methylpyrazol-4-yl)methyl]-1-[(5-methyl-3-pyridyl)methyl]-2,4-dioxo-quinazoline-6-sulfonamide]
Human Full Length PARG
  IC50: 0.073 µM
PARG in HeLa cell line; Homo sapiens
  IC50: 0.187 µM

## Cn1cc(Cn2c(=O)c3cc(S(=O)(=O)NC4(CF)CC4)ccc3n(Cc3cccc(F)n3)c2=O)cn1 [Example 540, N-[1-(Fluoromethyl)cyclopropyl]-1-[(6-fluoro-2-pyridyl)methyl]-3-[(1-methylpyrazol-4-yl)methyl]-2,4-dioxo-quinazoline-6-sulfonamide]
Human Full Length PARG
  IC50: 0.16 µM
PARG in HeLa cell line; Homo sapiens
  IC50: 0.096 µM

## Cc1cc(Cn2c(=O)n(Cc3cnn(C)c3)c(=O)c3cc(S(=O)(=O)NC4(CF)CC4)ccc32)ccn1 [Example 541, N-[1-(Fluoromethyl)cyclopropyl]-3-[(1-methylpyrazol-4-yl)methyl]-1-[(2-methyl-4-pyridyl)methyl]-2,4-dioxo-quinazoline-6-sulfonamide]
Human Full Length PARG
  IC50: 0.113 µM
PARG in HeLa cell line; Homo sapiens
  IC50: 0.227 µM

## Cn1cc(Cn2c(=O)c3cc(S(=O)(=O)NC4(CF)CC4)ccc3n(Cc3ncccc3F)c2=O)cn1 [Example 542, N-[1-(Fluoromethyl)cyclopropyl]-1-[(3-fluoro-2-pyridyl)methyl]-3-[(1-methylpyrazol-4-yl)methyl]-2,4-dioxo-quinazoline-6-sulfonamide]
Human Full Length PARG
  IC50: 0.349 µM
PARG in HeLa cell line; Homo sapiens
  IC50: 0.33 µM

## Cn1cc(Cn2c(=O)c3cc(S(=O)(=O)NC4(CF)CC4)ccc3n(Cc3ccc(C#N)cc3)c2=O)cn1 [Example 543, 1-[(4-Cyanophenyl)methyl]-N-[1-(fluoromethyl)cyclopropyl]-3-[(1-methylpyrazol-4-yl)methyl]-2,4-dioxo-quinazoline-6-sulfonamide]
Human Full Length PARG
  IC50: 0.058 µM
PARG in HeLa cell line; Homo sapiens
  IC50: 0.07 µM

## Cn1cc(Cn2c(=O)c3cc(S(=O)(=O)NC4(CF)CC4)ccc3n(CCF)c2=O)cn1 [Example 544, 1-(2-Fluoroethyl)-N-[1-(fluoromethyl)cyclopropyl]-3-[(1-methylpyrazol-4-yl)methyl]-2,4-dioxo-quinazoline-6-sulfonamide]
Human Full Length PARG
  IC50: 0.151 µM
PARG in HeLa cell line; Homo sapiens
  IC50: 0.086 µM

## Cc1noc(C)c1Cn1c(=O)n(Cc2cnn(C)c2)c(=O)c2cc(S(=O)(=O)NC3(CF)CC3)ccc21 [Example 545, 1-[(3,5-Dimethylisoxazol-4-yl)methyl]-N-[1-(fluoromethyl)cyclopropyl]-3-[(1-methylpyrazol-4-yl)methyl]-2,4-dioxo-quinazoline-6-sulfonamide]
Human Full Length PARG
  IC50: 0.145 µM
PARG in HeLa cell line; Homo sapiens
  IC50: 0.168 µM

## Cc1nc(Cn2c(=O)n(Cc3cnn(C)c3)c(=O)c3cc(S(=O)(=O)NC4(CF)CC4)ccc32)no1 [Example 546, N-[1-(Fluoromethyl)cyclopropyl]-1-[(5-methyl-1,2,4-oxadiazol-3-yl)methyl]-3-[(1-methylpyrazol-4-yl)methyl]-2,4-dioxo-quinazoline-6-sulfonamide]
Human Full Length PARG
  IC50: 0.152 µM
PARG in HeLa cell line; Homo sapiens
  IC50: 0.182 µM

## Cc1nc(Cn2c(=O)n(Cc3cnn(C)c3)c(=O)c3cc(S(=O)(=O)NC4(CF)CC4)ccc32)n(C)n1 [Example 547, 1-[(2,5-Dimethyl-1,2,4-triazol-3-yl)methyl]-N-[1-(fluoromethyl)cyclopropyl]-3-[(1-methylpyrazol-4-yl)methyl]-2,4-dioxo-quinazoline-6-sulfonamide]
Human Full Length PARG
  IC50: 0.188 µM
PARG in HeLa cell line; Homo sapiens
  IC50: 0.751 µM

## Cc1ncc(Cn2c(=O)n(Cc3cnn(C)c3)c(=O)c3cc(S(=O)(=O)NC4(CF)CC4)ccc32)o1 [Example 548, N-[1-(Fluoromethyl)cyclopropyl]-1-[(2-methyloxazol-5-yl)methyl]-3-[(1-methylpyrazol-4-yl)methyl]-2,4-dioxo-quinazoline-6-sulfonamide]
Human Full Length PARG
  IC50: 0.034 µM
PARG in HeLa cell line; Homo sapiens
  IC50: 0.063 µM

## CC(C)Cn1c(=O)n(Cc2cnn(C)c2)c(=O)c2cc(S(=O)(=O)NC3(CF)CC3)ccc21 [Example 549, N-[1-(Fluoromethyl)cyclopropyl]-1-isobutyl-3-[(1-methylpyrazol-4-yl)methyl]-2,4-dioxo-quinazoline-6-sulfonamide]
Human Full Length PARG
  IC50: 0.14 µM
PARG in HeLa cell line
  IC50: 0.091 µM

## Cc1cc(Cn2c(=O)c3cc(S(=O)(=O)NC4(CF)CC4)ccc3n(Cc3csc(C)n3)c2=O)on1 [Example 550, N-[1-(Fluoromethyl)cyclopropyl]-3-[(3-methylisoxazol-5-yl)methyl]-1-[(2-methylthiazol-4-yl)methyl]-2,4-dioxo-quinazoline-6-sulfonamide]
Human Full Length PARG
  IC50: 0.191 µM
PARG in HeLa cell line
  IC50: 0.134 µM

## Cc1cc(Cn2c(=O)c3cc(S(=O)(=O)NC4(CF)CC4)ccc3n(Cc3nncn3C)c2=O)on1 [Example 551, N-[1-(Fluoromethyl)cyclopropyl]-3-[(3-methylisoxazol-5-yl)methyl]-1-[(4-methyl-1,2,4-triazol-3-yl)methyl]-2,4-dioxo-quinazoline-6-sulfonamide]
Human Full Length PARG
  IC50: 0.404 µM
PARG in HeLa cell line; Homo sapiens
  IC50: 20.4 µM

## Cc1cc(Cn2c(=O)c3cc(S(=O)(=O)NC4(CF)CC4)ccc3n(Cc3nnc(C)s3)c2=O)on1 [Example 552, N-[1-(Fluoromethyl)cyclopropyl]-3-[(3-methylisoxazol-5-yl)methyl]-1-[(5-methyl-1,3,4-thiadiazol-2-yl)methyl]-2,4-dioxo-quinazoline-6-sulfonamide]
Human Full Length PARG
  IC50: 0.175 µM
PARG in HeLa cell line; Homo sapiens
  IC50: 0.157 µM

## Cc1cc(Cn2c(=O)c3cc(S(=O)(=O)NC4(CF)CC4)ccc3n(Cc3ncn(C)n3)c2=O)on1 [Example 553, N-[1-(Fluoromethyl)cyclopropyl]-3-[(3-methylisoxazol-5-yl)methyl]-1-[(1-methyl-1,2,4-triazol-3-yl)methyl]-2,4-dioxo-quinazoline-6-sulfonamide]
Human Full Length PARG
  IC50: 0.451 µM
PARG in HeLa cell line
  IC50: 1.51 µM

## Cc1cc(Cn2c(=O)c3cc(S(=O)(=O)NC4(CF)CC4)ccc3n(Cc3nc(C)nn3C)c2=O)on1 [Example 554, 1-[(2,5-Dimethyl-1,2,4-triazol-3-yl)methyl]-N-[1-(fluoromethyl)cyclopropyl]-3-[(3-methylisoxazol-5-yl)methyl]-2,4-dioxo-quinazoline-6-sulfonamide]
Human Full Length PARG
  IC50: 0.499 µM
PARG in HeLa cell line; Homo sapiens
  IC50: 0.604 µM

## Cc1cc(Cn2c(=O)c3cc(S(=O)(=O)NC4(CF)CC4)ccc3n(Cc3cnn(C)c3)c2=O)on1 [Example 555, N-[1-(Fluoromethyl)cyclopropyl]-3-[(3-methylisoxazol-5-yl)methyl]-1-[(1-methylpyrazol-4-yl)methyl]-2,4-dioxo-quinazoline-6-sulfonamide]
Human Full Length PARG
  IC50: 0.049 µM
PARG in HeLa cell line; Homo sapiens
  IC50: 0.086 µM

## Cc1cc(Cn2c(=O)c3cc(S(=O)(=O)NC4(CF)CC4)ccc3n(Cc3nnc(C)o3)c2=O)on1 [Example 556, N-[1-(Fluoromethyl)cyclopropyl]-3-[(3-methylisoxazol-5-yl)methyl]-1-[(5-methyl-1,3,4-oxadiazol-2-yl)methyl]-2,4-dioxo-quinazoline-6-sulfonamide]
Human Full Length PARG
  IC50: 0.348 µM
PARG in HeLa cell line; Homo sapiens
  IC50: 1.03 µM

## Cc1cc(Cn2c(=O)c3cc(S(=O)(=O)NC4(CF)CC4)ccc3n(Cc3ncnn3C)c2=O)on1 [Example 557, N-[1-(Fluoromethyl)cyclopropyl]-3-[(3-methylisoxazol-5-yl)methyl]-1-[(2-methyl-1,2,4-triazol-3-yl)methyl]-2,4-dioxo-quinazoline-6-sulfonamide]
Human Full Length PARG
  IC50: 0.368 µM
PARG in HeLa cell line; Homo sapiens
  IC50: 0.857 µM

## Cc1cc(Cn2c(=O)c3cc(S(=O)(=O)NC4(CF)CC4)ccc3n(Cc3noc(C)n3)c2=O)on1 [Example 558, N-[1-(Fluoromethyl)cyclopropyl]-3-[(3-methylisoxazol-5-yl)methyl]-1-[(5-methyl-1,2,4-oxadiazol-3-yl)methyl]-2,4-dioxo-quinazoline-6-sulfonamide]
Human Full Length PARG
  IC50: 0.207 µM
PARG in HeLa cell line; Homo sapiens
  IC50: 0.177 µM

## Cc1cc(Cn2c(=O)c3cc(S(=O)(=O)NC4(CF)CC4)ccc3n(Cc3cocn3)c2=O)on1 [Example 559, N-[1-(Fluoromethyl)cyclopropyl]-3-[(3-methylisoxazol-5-yl)methyl]-1-(oxazol-4-ylmethyl)-2,4-dioxo-quinazoline-6-sulfonamide]
Human Full Length PARG
  IC50: 0.085 µM
PARG in HeLa cell line; Homo sapiens
  IC50: 0.06 µM

## Cn1cc(Cn2c(=O)c3cc(S(=O)(=O)NC4(CF)CC4)ccc3n(CCn3cccn3)c2=O)cn1 [Example 560, N-[1-(Fluoromethyl)cyclopropyl]-3-[(1-methylpyrazol-4-yl)methyl]-2,4-dioxo-1-(2-pyrazol-1-ylethyl)quinazoline-6-sulfonamide]
Human Full Length PARG
  IC50: 0.53 µM
PARG in HeLa cell line
  IC50: 0.81 µM

## Cc1cc(Cn2c(=O)n(Cc3cnn(C)c3)c(=O)c3cc(S(=O)(=O)NC4(CF)CC4)ccc32)[nH]n1 [Example 561, N-[1-(Fluoromethyl)cyclopropyl]-3-[(1-methylpyrazol-4-yl)methyl]-1-[(3-methyl-1H-pyrazol-5-yl)methyl]-2,4-dioxo-quinazoline-6-sulfonamide]
Human Full Length PARG
  IC50: 0.095 µM
PARG in HeLa cell line; Homo sapiens
  IC50: 0.57 µM

## Cn1cc(Cn2c(=O)c3cc(S(=O)(=O)NC4(CF)CC4)ccc3n(Cc3ncnn3C)c2=O)cn1 [Example 562, N-[1-(Fluoromethyl)cyclopropyl]-3-[(1-methylpyrazol-4-yl)methyl]-1-[(2-methyl-1,2,4-triazol-3-yl)methyl]-2,4-dioxo-quinazoline-6-sulfonamide]
Human Full Length PARG
  IC50: 0.192 µM
PARG in HeLa cell line
  IC50: 0.598 µM
